Values after ≈ are worked out from the molar mass of the structure shown. Active and inactive are the calls of the source. The rule behind the calls is not given here.
How the values were obtained:
[1] = system: Mycobacterium tuberculosis; assay: Antimycobacterial activity against Mycobacterium tuberculosis H37Rv assessed as reduction in bacterial growth; type: functional
[2] = system: Mycobacterium tuberculosis; assay: Antimycobacterial activity against Mycobacterium tuberculosis H37Rv assessed as reduction in bacterial growth at 100 microg/ml; type: functional, organism-based; settings: dose 100.0 µg/ml
[3] = Solubility of compound; type: physicochemical

SMILES: Cc1cc(SCC(=O)Nc2cc(C(F)(F)F)ccc2Cl)nc(N)n1
- MIC [1]: 25 µg/mL (≈ 66.3 µM)

SMILES: Cc1cc(SCC(=O)Nc2ccc(F)cc2)nc(N)n1
- MIC [1]: 100 µg/mL (≈ 342 µM)

SMILES: Cc1ccc(NC(=O)CSc2cc(C)nc(N)n2)cc1
- Activity [2]: inactive

SMILES: Cc1cc(SCC(=O)Nc2cc(Cl)ccc2Cl)nc(N)n1
- MIC [1]: 1.5 µg/mL (≈ 4.37 µM)

SMILES: CC[C@@H](CO)NCCN[C@@H](CC)CO [ETHAMBUTOL]
- MIC [1]: 5 µg/mL (≈ 24.5 µM)

SMILES: CO[C@H]1/C=C/O[C@@]2(C)Oc3c(C)c(O)c4c(O)c(c(/C=N/N5CCN(C)CC5)c(O)c4c3C2=O)NC(=O)/C(C)=C\C=C\[C@H](C)[C@H](O)[C@@H](C)[C@@H](O)[C@@H](C)[C@H](OC(C)=O)[C@@H]1C [RIFAMPIN]
- MIC [1]: 0.5 µg/mL (≈ 0.608 µM)

SMILES: NNC(=O)c1ccncc1 [ISONIAZID]
- MIC [1]: 0.1 µg/mL (≈ 0.729 µM)

SMILES: Cc1ccc(NC(=O)CSc2cc(C)nc(N)n2)c(C)c1
- MIC [1]: 100 µg/mL (≈ 331 µM)

SMILES: Cc1cc(SCC(=O)Nc2cccc(Cl)c2C)nc(N)n1
- MIC [1]: 100 µg/mL (≈ 310 µM)

SMILES: Cc1cc(SCC(=O)Nc2ccccc2)nc(N)n1
- MIC [1]: 100 µg/mL (≈ 364 µM)

SMILES: Cc1cc(SCC(=O)Nc2ccc(C(C)C)cc2)nc(N)n1
- MIC [1]: 1.5 µg/mL (≈ 4.74 µM)

SMILES: Cc1cc(=O)[nH]c(N)n1
- solubility [3]: Soluble
